# Assay results reported in ChEMBL document CHEMBL1201862, “PubChem BioAssay data set” (2004).
#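 In this assay, cells in 96-well plates receive the compound at five concentrations for 48 hours. Endpoints are linearly interpolated between the surrounding concentrations. Here, GI50 denotes the concentration required for 50% inhibition of growth.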 The source made the active and inactive calls. No stated cut-off is given here; in the data, active = GI50 up to about 1.1 µM and inactive = higher.
# Tests used:
# Assay in all cases: NCI anticancer screen, dose series, 48 h
# 786-0 = test system: 786-0
# A498 = test system: A498
# A549 = test system: A549
# ACHN = test system: ACHN
# BT-549 = test system: BT-549
# CAKI-1 = test system: CAKI-1
# CCRF-CEM = test system: CCRF-CEM
# COLO 205 = test system: COLO 205
# DU-145 = test system: DU-145
# EKVX = test system: EKVX
# HCC 2998 = test system: HCC 2998
# HCT-116 = test system: HCT-116
# HCT-15 = test system: HCT-15
# HL-60 = test system: HL-60
# HOP-62 = test system: HOP-62
# HOP-92 = test system: HOP-92
# HT-29 = test system: HT-29
# Hs-578T = test system: Hs-578T
# IGROV-1 = test system: IGROV-1
# K562 = test system: K562
# KM12 = test system: KM12
# LOX IMVI = test system: LOX IMVI
# M14 = test system: M14
# MCF7 = test system: MCF7
# MDA-MB-231 = test system: MDA-MB-231
# MDA-MB-435 = test system: MDA-MB-435
# MDA-N = test system: MDA-N
# MOLT-4 = test system: MOLT-4
# Malme-3M = test system: Malme-3M
# NCI-H226 = test system: NCI-H226
# NCI-H23 = test system: NCI-H23
# NCI-H460 = test system: NCI-H460
# NCI-H522 = test system: NCI-H522
# NCI/ADR-RES = test system: NCI/ADR-RES
# OVCAR-3 = test system: OVCAR-3
# OVCAR-4 = test system: OVCAR-4
# OVCAR-5 = test system: OVCAR-5
# OVCAR-8 = test system: OVCAR-8
# PC-3 = test system: PC-3
# RPMI-8226 = test system: RPMI-8226
# RXF 393 = test system: RXF 393
# SF-268 = test system: SF-268
# SF-295 = test system: SF-295
# SF-539 = test system: SF-539
# SK-MEL-28 = test system: SK-MEL-28
# SK-MEL-2 = test system: SK-MEL-2
# SK-MEL-5 = test system: SK-MEL-5
# SK-OV-3 = test system: SK-OV-3
# SN12C = test system: SN12C
# SNB-19 = test system: SNB-19
# SNB-75 = test system: SNB-75
# SR = test system: SR
# SW-620 = test system: SW-620
# T47D = test system: T47D
# TK-10 = test system: TK-10
# U-251 = test system: U-251
# UACC-257 = test system: UACC-257
# UACC-62 = test system: UACC-62
# UO-31 = test system: UO-31
# DLD-1 = test system: DLD-1
# DMS-114 = test system: DMS-114
# DMS-273 = test system: DMS-273
# KM-20L2 = test system: KM-20L2
# LXFL 529 = test system: LXFL 529
# M19-MEL = test system: M19-MEL
# SNB-78 = test system: SNB-78
# XF498 = test system: XF498
structure (smiles),measurement,setting,value
Cc1ccc2nc(CC(=O)c3ccc4ccccc4c3)c(O)nc2c1,GI50,786-0,> 100 µM (inactive)
same,GI50,A498,> 100 µM (inactive)
same,GI50,A549,> 100 µM (inactive)
same,GI50,ACHN,> 100 µM (inactive)
same,GI50,BT-549,> 100 µM (inactive)
same,GI50,CAKI-1,> 100 µM (inactive)
same,GI50,CCRF-CEM,> 100 µM (inactive)
same,GI50,COLO 205,> 100 µM (inactive)
same,GI50,DU-145,> 100 µM (inactive)
same,GI50,EKVX,> 100 µM (inactive)
same,GI50,HCC 2998,> 100 µM (inactive)
same,GI50,HCT-116,> 100 µM (inactive)
same,GI50,HCT-15,> 100 µM
same,GI50,HL-60,> 100 µM (inactive)
same,GI50,HOP-62,> 100 µM (inactive)
same,GI50,HOP-92,> 100 µM (inactive)
same,GI50,HT-29,66.2 µM (inactive)
same,GI50,Hs-578T,> 100 µM (inactive)
same,GI50,IGROV-1,> 100 µM (inactive)
same,GI50,K562,> 100 µM (inactive)
same,GI50,KM12,> 100 µM (inactive)
same,GI50,LOX IMVI,> 100 µM (inactive)
same,GI50,M14,> 100 µM (inactive)
same,GI50,MCF7,> 100 µM (inactive)
same,GI50,MDA-MB-231,> 100 µM (inactive)
same,GI50,MDA-MB-435,> 100 µM (inactive)
same,GI50,MDA-N,> 100 µM (inactive)
same,GI50,MOLT-4,> 100 µM (inactive)
same,GI50,Malme-3M,> 100 µM (inactive)
same,GI50,NCI-H226,> 100 µM (inactive)
same,GI50,NCI-H23,> 100 µM (inactive)
same,GI50,NCI-H460,> 100 µM (inactive)
same,GI50,NCI-H522,> 100 µM (inactive)
same,GI50,NCI/ADR-RES,> 100 µM (inactive)
same,GI50,OVCAR-3,> 100 µM (inactive)
same,GI50,OVCAR-4,> 100 µM (inactive)
same,GI50,OVCAR-5,> 100 µM (inactive)
same,GI50,OVCAR-8,> 100 µM (inactive)
same,GI50,PC-3,> 100 µM (inactive)
same,GI50,RPMI-8226,> 100 µM (inactive)
same,GI50,RXF 393,> 100 µM (inactive)
same,GI50,SF-268,> 100 µM (inactive)
same,GI50,SF-295,> 100 µM (inactive)
same,GI50,SF-539,> 100 µM (inactive)
same,GI50,SK-MEL-28,> 100 µM (inactive)
same,GI50,SK-MEL-2,> 100 µM (inactive)
same,GI50,SK-MEL-5,> 100 µM (inactive)
same,GI50,SK-OV-3,> 100 µM (inactive)
same,GI50,SN12C,> 100 µM (inactive)
same,GI50,SNB-19,> 100 µM (inactive)
same,GI50,SNB-75,> 100 µM (inactive)
same,GI50,SR,> 100 µM (inactive)
same,GI50,SW-620,> 100 µM (inactive)
same,GI50,T47D,> 100 µM (inactive)
same,GI50,TK-10,> 100 µM (inactive)
same,GI50,U-251,> 100 µM (inactive)
same,GI50,UACC-257,> 100 µM (inactive)
same,GI50,UACC-62,> 100 µM (inactive)
same,GI50,UO-31,> 100 µM (inactive)
O=c1cccccc1NCCCCCCCCCNc1cccccc1=O,GI50,786-0,22.1 µM (inactive)
same,GI50,A549,9.66 µM (inactive)
same,GI50,ACHN,4.28 µM (inactive)
same,GI50,CAKI-1,13.3 µM (inactive)
same,GI50,CCRF-CEM,5.94 µM (inactive)
same,GI50,COLO 205,3.23 µM (inactive)
same,GI50,DLD-1,10.8 µM (inactive)
same,GI50,DMS-114,1.35 µM (inactive)
same,GI50,DMS-273,12.5 µM (inactive)
same,GI50,EKVX,4.56 µM (inactive)
same,GI50,HCC 2998,13.3 µM (inactive)
same,GI50,HCT-116,2.74 µM (inactive)
same,GI50,HCT-15,12.2 µM
same,GI50,HL-60,4.06 µM (inactive)
same,GI50,HOP-62,15.1 µM (inactive)
same,GI50,HOP-92,18.7 µM (inactive)
same,GI50,HT-29,15.7 µM (inactive)
same,GI50,IGROV-1,19 µM (inactive)
same,GI50,K562,3.35 µM (inactive)
same,GI50,KM-20L2,19.6 µM (inactive)
same,GI50,KM12,16.1 µM (inactive)
same,GI50,LOX IMVI,5.9 µM (inactive)
same,GI50,LXFL 529,8.97 µM (inactive)
same,GI50,M14,10.9 µM (inactive)
same,GI50,M19-MEL,15.2 µM (inactive)
same,GI50,MOLT-4,5.75 µM (inactive)
same,GI50,Malme-3M,7.52 µM (inactive)
same,GI50,NCI-H226,15.7 µM (inactive)
same,GI50,NCI-H23,5.26 µM (inactive)
same,GI50,NCI-H460,9.51 µM (inactive)
same,GI50,NCI-H522,13.9 µM (inactive)
same,GI50,OVCAR-3,9.06 µM (inactive)
same,GI50,OVCAR-4,1.78 µM (inactive)
same,GI50,OVCAR-5,17.5 µM (inactive)
same,GI50,OVCAR-8,13.6 µM (inactive)
same,GI50,RPMI-8226,4.4 µM (inactive)
same,GI50,RXF 393,22.5 µM (inactive)
same,GI50,SF-268,14.1 µM (inactive)
same,GI50,SF-295,9.64 µM (inactive)
same,GI50,SF-539,6.68 µM (inactive)
same,GI50,SK-MEL-2,19 µM (inactive)
same,GI50,SK-OV-3,33.1 µM (inactive)
same,GI50,SN12C,21 µM (inactive)
same,GI50,SNB-19,11.5 µM (inactive)
same,GI50,SNB-75,17.9 µM (inactive)
same,GI50,SNB-78,17.1 µM (inactive)
same,GI50,SR,8.43 µM (inactive)
same,GI50,SW-620,18.6 µM (inactive)
same,GI50,U-251,10.6 µM (inactive)
same,GI50,UACC-257,2.12 µM (inactive)
same,GI50,UACC-62,12.5 µM (inactive)
same,GI50,UO-31,12 µM (inactive)
same,GI50,XF498,7.36 µM (inactive)
